23 compounds from patent US9221809B2 (MERCK SHARP & DOHME CORP., priority 2011, dated 2015) can be followed below.

The test addresses IRAK4 (Homo sapiens (Human), UniProt Q9NWZ3). The experiment in a line: IRAK4 kinase activity, IMAP fluorescence polarization assay. In kind it is biochemical. Particulars: 100 μM ATP, read-out: IRAK4 IC50. As for the experimental part:
The kinase activity of IRAK4 is determined by its ability to catalyze the phosphorylation of a fluorescent polypeptide substrate. The extent of phosphorylation is measured using IMAP technology (Molecular Devices) where the phosphorylated fluorescent substrate binds to the large M(III)-based nanoparticles which reduces the rotational speed of the substrate and thus increases its fluorescent polarization (FP).
Assay Procedure: A 20 μl reaction mixture contains 10 mM TriHCl, pH 7.2, 0.5 nM GST tagged IRAK4 (SignalChem), 100 nM fluorescent peptide substrate (RP7030, Molecular Devices), 100 μM ATP, 1 mM DTT, 1 mM MgCl2, and 0.01% Tween 20. The reaction is initiated by the addition of ATP. After incubation for 30 minutes at 25° C., 60 μl of Progressive IMAP Reagent (Molecular Devices) is added to stop the reaction. Change in RP7030's FP is determined by a FP reader (Analyst HT, LJL BioSystems)

Structures can show the parent of a compound that is named as a salt. Where two headings read alike, the source gives them in different places.

IRAK4, sequence (Q9NWZ3 whole entry): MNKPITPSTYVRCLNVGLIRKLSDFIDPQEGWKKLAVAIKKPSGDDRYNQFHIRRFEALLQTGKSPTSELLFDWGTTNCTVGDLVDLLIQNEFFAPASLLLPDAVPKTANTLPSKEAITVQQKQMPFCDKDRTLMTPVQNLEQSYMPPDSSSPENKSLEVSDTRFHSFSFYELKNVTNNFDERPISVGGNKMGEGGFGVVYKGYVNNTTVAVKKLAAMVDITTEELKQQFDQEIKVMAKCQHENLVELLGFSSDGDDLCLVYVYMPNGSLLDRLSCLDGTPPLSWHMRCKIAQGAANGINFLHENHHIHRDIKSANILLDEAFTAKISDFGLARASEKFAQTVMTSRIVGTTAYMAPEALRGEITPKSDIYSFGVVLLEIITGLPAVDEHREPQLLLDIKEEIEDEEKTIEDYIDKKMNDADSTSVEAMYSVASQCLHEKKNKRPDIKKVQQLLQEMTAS

With `O=c1[nH]c(NC2CCC2)nc(N[C@@H]2C[C@H](CO)[C@@H](O)[C@H]2O)c1-c1nc2cnccc2s1` [Example 55, 2-(Cyclobutylamino)-6-((1R,2S,3R,4R)-2,3-dihydroxy-4-(hydroxymethyl)cyclopentylamino)-5-(thiazolo[4,5-c]pyridin-2-yl)pyrimidin-4(3H)-one.HCl], the IC50 (0.5 nM GST tagged IRAK4) came to 2.5 nM.
`Cc1nccc2sc(-c3c(N[C@@H]4C[C@H](CO)[C@@H](O)[C@H]4O)nc(N4CCOCC4)[nH]c3=O)nc12` [Example 56, 6-(((1R,2S,3R,4R)-2,3-Dihydroxy-4-(hydroxymethyl)cyclopentyl)amino)-5-(4-methylthiazolo[4,5-c]pyridin-2-yl)-2-morpholinopyrimidin-4(3H)-one.HCl]: for the setting “0.5 nM GST tagged IRAK4”, the IC50 came to 8.4 nM.
The same measure, in the same setting: the same measure for `Cc1cc2sc(-c3c(N[C@@H]4C[C@H](CO)[C@@H](O)[C@H]4O)nc(N4CCOCC4)[nH]c3=O)nc2c(C)n1` [Example 57, 6-(((1R,2S,3R,4R)-2,3-Dihydroxy-4-(hydroxymethyl)cyclopentyl)amino)-5-(4,6-dimethylthiazolo[4,5-c]pyridin-2-yl)-2-morpholinopyrimidin-4(3H)-one.HCl]: 923 nM.
On the same count and under the same terms, then `O=c1[nH]c(N2CCOCC2)nc(N[C@@H]2C[C@H](CO)[C@@H](O)[C@H]2O)c1-c1nc(-c2ccc(F)cc2)cs1` [Example 58, 6-(((1R,2S,3R,4R)-2,3-Dihydroxy-4-(hydroxymethyl)cyclopentyl)amino)-5-(4-(4-fluorophenyl)thiazol-2-yl)-2-morpholinopyrimidin-4(3H)-one.HCl], with 5.6 nM; and `O=c1[nH]c(N2CCCCC2)nc(N[C@@H]2C[C@H](CO)[C@@H](O)[C@H]2O)c1-c1nc(-c2ccc(F)cc2)cs1` [Example 59, 6-(((1R,2S,3R,4R)-2,3-Dihydroxy-4-(hydroxymethyl)cyclopentyl)amino)-5-(4-(4-fluorophenyl)thiazol-2-yl)-2-(piperidin-1-yl)pyrimidin-4(3H)-one HCl], with 22.5 nM; and `CCc1nc(N[C@@H]2C[C@H](CO)[C@@H](O)[C@H]2O)c(-c2nc3ccccc3s2)c(=O)[nH]1` [Example 61, 5-(Benzo[d]thiazol-2-yl)-6-((1R,2S,3R,4R)-2,3-dihydroxy-4-(hydroxymethyl)cyclopentylamino)-2-ethylpyrimidin-4(3H)-one.HCl], with 1160 nM.
For `O=c1[nH]c(N2CCN(c3cccnc3)CC2)nc(N[C@@H]2C[C@H](CO)[C@@H](O)[C@H]2O)c1-c1nc2ccccc2s1` [Example 63, 5-(benzo[d]thiazol-2-yl)-6-((1R,2S,3R,4R)-2,3-dihydroxy-4-(hydroxymethyl)cyclopentylamino)-2-(4-(pyridin-3-yl)piperazin-1-yl)pyrimidin-4(3H)-one], the IC50 (unit inferred) was determined as 3.7 nM.
In the case of `O=c1[nH]c(N2CCC(c3cncnc3)CC2)nc(N[C@@H]2C[C@H](CO)[C@@H](O)[C@H]2O)c1-c1nc2ccccc2s1` [Example 64, 5-(benzo[d]thiazol-2-yl)-6-((1R,2S,3R,4R)-2,3-dihydroxy-4-(hydroxymethyl)cyclopentylamino)-2-(4-(pyrimidin-5-yl)piperidin-1-yl)pyrimidin-4(3H)-one], the half-inhibitory concentration (IC50) (unit inferred) is 6.2 nM.
Same read-out and setting: the same measure for `O=c1[nH]c(N2CCc3ccncc3C2)nc(N[C@@H]2C[C@H](CO)[C@@H](O)[C@H]2O)c1-c1nc2ccccc2s1` [Example 65, 5-(benzo[d]thiazol-2-yl)-2-(3,4-dihydro-2,7-naphthyridin-2(1H)-yl)-6-((1R,2S,3R,4R)-2,3-dihydroxy-4-(hydroxymethyl)cyclopentylamino)pyrimidin-4(3H)-one]: 7.2 nM; for `CN1CCC2(CCN(c3nc(N[C@@H]4C[C@H](CO)[C@@H](O)[C@H]4O)c(-c4nc5ccccc5s4)c(=O)[nH]3)CC2)C1=O` [Example 66, 8-(5-(benzo[d]thiazol-2-yl)-4-((1R,2S,3R,4R)-2,3-dihydroxy-4-(hydroxymethyl)cyclopentylamino)-6-oxo-1,6-dihydropyrimidin-2-yl)-2-methyl-2,8-diazaspiro[4.5]decan-1-one]: 8.8 nM.
The same measure, in the same setting: the same measure for `O=c1[nH]c(N2CCC(n3ccnn3)CC2)nc(N[C@@H]2C[C@H](CO)[C@@H](O)[C@H]2O)c1-c1nc2ccccc2s1` [Example 67, 2-(4-(1H-1,2,3-triazol-1-yl)piperidin-1-yl)-5-(benzo[d]thiazol-2-yl)-6-((1R,2S,3R,4R)-2,3-dihydroxy-4-(hydroxymethyl)cyclopentylamino)pyrimidin-4(3H)-one]: 11.8 nM; for `O=c1[nH]c(N2CCN(c3ccccn3)CC2)nc(N[C@@H]2C[C@H](CO)[C@@H](O)[C@H]2O)c1-c1nc2ccccc2s1` [Example 68, 5-(benzo[d]thiazol-2-yl)-6-((1R,2S,3R,4R)-2,3-dihydroxy-4-(hydroxymethyl)cyclopentylamino)-2-(4-(pyridin-2-yl)piperazin-1-yl)pyrimidin-4(3H)-one]: 12.1 nM; for `O=c1[nH]c(N2CCC(c3cnccn3)CC2)nc(N[C@@H]2C[C@H](CO)[C@@H](O)[C@H]2O)c1-c1nc2ccccc2s1` [Example 69, 5-(benzo[d]thiazol-2-yl)-6-((1R,2S,3R,4R)-2,3-dihydroxy-4-(hydroxymethyl)cyclopentylamino)-2-(4-(pyrazin-2-yl)piperidin-1-yl)pyrimidin-4(3H)-one]: 12.5 nM.
Still for that read-out and setting: then `O=c1[nH]c(N2CCC(c3cccnc3)CC2)nc(N[C@@H]2C[C@H](CO)[C@@H](O)[C@H]2O)c1-c1nc2ccccc2s1` [Example 70, 5-(benzo[d]thiazol-2-yl)-6-((1R,2S,3R,4R)-2,3-dihydroxy-4-(hydroxymethyl)cyclopentylamino)-2-(4-(pyridin-3-yl)piperidin-1-yl)pyrimidin-4(3H)-one], with 13.3 nM.
Turning to `CS(=O)(=O)C1CN(c2nc(N[C@@H]3C[C@H](CO)[C@@H](O)[C@H]3O)c(-c3nc4ccccc4s3)c(=O)[nH]2)C1` [Example 71, 5-(benzo[d]thiazol-2-yl)-6-((1R,2S,3R,4R)-2,3-dihydroxy-4-(hydroxymethyl)cyclopentylamino)-2-(3-(methylsulfonyl)azetidin-1-yl)pyrimidin-4(3H)-one], the IC50 (unit inferred) turned out to be 17.9 nM.
The same measure, in the same setting: then `O=c1[nH]c(N2CCC(c3ccncc3)CC2)nc(N[C@@H]2C[C@H](CO)[C@@H](O)[C@H]2O)c1-c1nc2ccccc2s1` [Example 72, 5-(benzo[d]thiazol-2-yl)-6-((1R,2S,3R,4R)-2,3-dihydroxy-4-(hydroxymethyl)cyclopentylamino)-2-(4-(pyridin-4-yl)piperidin-1-yl)pyrimidin-4(3H)-one], with 19 nM; and `Cn1cc(C2CCN(c3nc(N[C@@H]4C[C@H](CO)[C@@H](O)[C@H]4O)c(-c4nc5ccccc5s4)c(=O)[nH]3)CC2)nn1` [Example 73, 5-(benzo[d]thiazol-2-yl)-6-((1R,2S,3R,4R)-2,3-dihydroxy-4-(hydroxymethyl)cyclopentylamino)-2-(4-(1-methyl-1H-1,2,3-triazol-4-yl)piperidin-1-yl)pyrimidin-4(3H)-one], with 19.4 nM.
The same measure, in the same setting: the same measure for `O=c1[nH]c(N2CCc3cnccc3C2)nc(N[C@@H]2C[C@H](CO)[C@@H](O)[C@H]2O)c1-c1nc2ccccc2s1` [Example 74, 5-(benzo[d]thiazol-2-yl)-2-(3,4-dihydro-2,6-naphthyridin-2(1H)-yl)-6-((1R,2S,3R,4R)-2,3-dihydroxy-4-(hydroxymethyl)cyclopentylamino)pyrimidin-4(3H)-one]: 26.4 nM.
For `O=c1[nH]c(N2CCCN(Cc3nccs3)CC2)nc(N[C@@H]2C[C@H](CO)[C@@H](O)[C@H]2O)c1-c1nc2ccccc2s1` [Example 75, 5-(benzo[d]thiazol-2-yl)-6-((1R,2S,3R,4R)-2,3-dihydroxy-4-(hydroxymethyl)cyclopentylamino)-2-(4-(thiazol-2-ylmethyl)-1,4-diazepan-1-yl)pyrimidin-4(3H)-one], the IC50 (unit inferred) was 226 nM.
The same measure, in the same setting: then `O=c1[nH]c(N2CCC(c3ccncc3)C2)nc(N[C@@H]2C[C@H](CO)[C@@H](O)[C@H]2O)c1-c1nc2ccccc2s1` (stereo partly drawn) [Example 76, 5-(benzo[d]thiazol-2-yl)-6-((1R,2S,3R,4R)-2,3-dihydroxy-4-(hydroxymethyl)cyclopentylamino)-2-(3-(pyridin-4-yl)pyrrolidin-1-yl)pyrimidin-4(3H)-one], with 30.9 nM; and `CS(=O)(=O)N1CCCN(c2nc(N[C@@H]3C[C@H](CO)[C@@H](O)[C@H]3O)c(-c3nc4ccccc4s3)c(=O)[nH]2)CC1` [Example 77, 5-(benzo[d]thiazol-2-yl)-6-((1R,2S,3R,4R)-2,3-dihydroxy-4-(hydroxymethyl)cyclopentylamino)-2-(4-(methylsulfonyl)-1,4-diazepan-1-yl)pyrimidin-4(3H)-one], with 225 nM.
Consider `O=c1[nH]c(N2CCC(c3ccccn3)CC2)nc(N[C@@H]2C[C@H](CO)[C@@H](O)[C@H]2O)c1-c1nc2ccccc2s1` [Example 78, 5-(benzo[d]thiazol-2-yl)-6-((1R,2S,3R,4R)-2,3-dihydroxy-4-(hydroxymethyl)cyclopentylamino)-2-(4-(pyridin-2-yl)piperidin-1-yl)pyrimidin-4(3H)-one], for which, for the setting “unit inferred”, the IC50 was 36 nM.
On the same count and under the same terms, then `CC(=O)NCC1CCN(c2nc(N[C@@H]3C[C@H](CO)[C@@H](O)[C@H]3O)c(-c3nc4ccccc4s3)c(=O)[nH]2)CC1` [Example 79, N-((1-(5-(benzo[d]thiazol-2-yl)-4-((1R,2S,3R,4R)-2,3-dihydroxy-4-(hydroxymethyl)cyclopentylamino)-6-oxo-1,6-dihydropyrimidin-2-yl)piperidin-4-yl)methyl)acetamide], with 36.7 nM.

For orientation: IC50 means the concentration needed to halve the response being measured.
